Results: patent publication US20090176817A1, “Method of Treatment of Diarrhea-Predominant Irritable Bowel Syndrome in a Subject” (priority 2005, published 2009)
Marks after values point to notes of the source that are not given here.

How the values were obtained:
[1] = tested on: healthy, elderly subjects; assay: Study K.241.5014: colonic transit time, elderly, 8 mg TID; type: in vivo, human
Excerpt: The effect of cilansetron on gastric emptying time and colonic transit time has been studied in 1 clinical study in healthy young subjects and 2 studies in elderly subjects. For measurement of gastric emptying time, breath samples for the determination of the ^12C/^13C ratio were taken on the last day of each treatment period immediately after ingestion of a ^13C labeled meal. The patients' breath was collected in separate 15-minute intervals, for four hours in total. ^13CO2 measurements were performed with an isotope ratio mass spectrometer. The half-life (TK) and lag-time (Tlag), which describe the duration of gastric emptying, were used as the primary parameters to evaluate gastric emptying time. In all 3 studies, colonic transit time was measured by administration of radio-opaque markers for the last six days of each treatment period, followed by a single abdominal X-ray image at 24 hours after ingestion of the last set of markers. The numbers of markers within the colon were used to calculate segmental (right colon, left colon, and rectosigmoid) and total colonic transit time.
Studies K.241.5013 and K.241.5014 were randomized, double-blind, placebo-controlled, 2-way crossover studies in 8 healthy male and female elderly subjects, each (ITT population, aged 64-83 years in K.241.5013 and 66-84 years in K.241.5014). Elderly subjects were selected for these studies because they commonly suffer from constipation and it was of interest whether cilansetron would prolong gastrointestinal transit times in this population. Subjects received cilansetron 4 mg or placebo in Study K.241.5013 and cilansetron 8 mg or placebo in Study K.241.5014. Treatments were administered orally TID for 14 days during each period, with a 14-day washout between periods. The primary efficacy parameter was the total mean colonic transit time during each treatment and the secondary parameters were the segmental colonic transit times and the gastric emptying measurements. One-sided t-tests were used to compare efficacy parameters between the cilansetron and placebo treatments.

[2] = tested on: diarrhea-predominant IBS subjects; assay: Study S241.3.006: IBS-QOL; type: in vivo, human; conditions: for Percentage of Subjects Who Worsened from Baseline: IBS-QOL Overall Score: S241.3.006, 2 mg TID, observed value
Excerpt: Studies S24 1.3.OO6, S24 1.3.0 1 1, and S24 1.3.009 used the following efficacy measurements: • The subjects answered the following three questions with “yes” or “no” using a phone diary at the end of each week: • a) During the last week, did you experience adequate relief of your IBS symptoms, such as abdominal pain, abdominal discomfort, abnormal bowel habits? • b) During the last week, did you experience adequate relief of your abdominal pain and/or discomfort? • c) During the last week, did you experience adequate relief of your abnormal bowel habits? • The subjects rated the following symptoms using the phone diary at the end of each day: • abdominal pain/discomfort (five-point scale); • stool consistency (seven-point Bristol Stool Scale); • stool frequency (number of bowel movements each day); • urgency (five-point scale); • straining (yes or no); • feeling of incomplete defecation (yes or no); • bloating or feeling of abdominal distension (five-point scale). • In Studies S241 A006 and S241.3.009, subjects completed the IBS-QOL Survey at Baseline (Day 1) and at the end of treatment. In Study S24 1.3.0 1 1, subjects completed the IBS-QOL Survey at Baseline (Day 1), at the end of the three-month treatment period, and at the end of rerandomized treatment.
Other secondary efficacy parameters for all three studies included: • Responder rate for the weekly diary questions on adequate relief at each month, where a responder for a month (monthly responder) was defined as a subject who answered the weekly question with “yes” at least twice for that month. The responder rate was the percentage of responders within a treatment group. The all-month responder rate for the weekly diary questions on adequate relief was also evaluated, where an all-month responder was defined as a subject who answered the weekly question with “yes” at least twice for each month. The all-month responder rate was the percentage of all-month responders within a treatment group; • Adequate relief rate for the weekly diary questions was calculated for each subject as the number of weekly assessments with adequate relief (“yes”) divided by the total number of weekly assessments; • Percentage of subjects with adequate relief for the weekly diary questions at each week; • Daily diary questions regarding abdominal pain/discomfort (five-point scale), stool consistency (seven-point scale), stool frequency (number of bowel movements each day), straining (yes or no), urgency (five-point scale), feeling of incomplete evacuation (yes or no), and bloating or feeling of abdominal distention (five-point scale); • QOL data assessed by the IBS-QOL questionnaire; and • Question to determine the interruption of activities.

[3] = 8 mg TID oral 14 days, healthy elderly, Study K.241.5014, mean (SD)

Cc1nccn1C[C@H]1CCc2c(c3cccc4c3n2CCC4)C1=O [Cilansetron, (R)-(−)-4,5,6,8,9,10-hexahydro-10-[(2-methyl-1H-imidazol-1-yl)methyl]-11H-pyrido-[3,2,1-jk]-carbazol-11-one]
Total colonic transit time vs placebo ([1]; 8 mg TID): statistically significant increase | Transit Times, Colonic Segments Left [1, 3]: 31.5 (30.5) hours | Transit Times, Colonic Segments Rectosigmoid [1, 3]: 16.7 (25.2) hours | Transit Times, Colonic Segments Right [1, 3]: 31.4 (21.0) hours | Transit Times, Colon Total ([1]; 8 mg TID oral 14 days, healthy elderly, Study K.241.5014, mean (SD), significant vs placebo (p < 0.05)): 79.8 (49.8)* hours | Subjects worsened from Baseline, IBS-QOL Overall Score ([2]; Month 3): 5% | Percentage of Subjects Who Worsened from Baseline: IBS-QOL Overall Score ([2]; Endpoint (last post-Baseline overall score)): 6% | Percentage of Subjects Who Worsened from Baseline: IBS-QOL Overall Score ([2]; Month 3): 5% | IBS-QOL body image, treatment difference ([2]; vs placebo): 7.43 | IBS-QOL dysphoria, treatment difference ([2]; vs placebo): 7.34 | IBS-QOL food avoidance, treatment difference ([2]; vs placebo): 8.92 | IBS-QOL health worry, treatment difference ([2]; vs placebo): 3.21 | IBS-QOL interference with activity, treatment difference ([2]; vs placebo): 9.73 | IBS-QOL overall score, treatment difference in mean change from Baseline at Endpoint ([2]; vs placebo): 7.37 | IBS-QOL relationships, treatment difference ([2]; vs placebo): 5.19 | IBS-QOL sexual, treatment difference ([2]; vs placebo): 5.64 | IBS-QOL social reaction, treatment difference ([2]; vs placebo): 6.19
